Assay results reported in patent US20110208153A1, “FORMULATIONS AND METHODS FOR NUTRIENT DELIVERY” (priority 2010, published 2011).

Tested on: pre-retinal neovascularization
Assay: pre-retinal neovascularization in the OIR mouse model following gavage treatments
Assay type: in vivo
Details: for pre-retinal neovascularization relative to vehicle control: P<0.05
Source text: FIG. 1 provides a graphical summary of the analysis of pre-retinal neovascularization levels in the mouse model following gavage treatments. The numbers in brackets in the legend refer to gavage doses in g/kg bodyweight/day. An * indicates P-values<0.05.

Molecule	pre-retinal neovascularization relative to vehicle control (2.5 g/kg body weight/day)	effect on pre-retinal neovascularization (in words)	pre-retinal neovascularization relative to vehicle control (5 g/kg of body weight/day)
CC/C=C\C/C=C\C/C=C\C/C=C\C/C=C\C/C=C\CCC(=O)O [DHA, docosahexaenoic acid]	49±4%		
arginyl-glutamine dipeptide [Arg-Gln dipeptide]		dose-dependent reduction	39±6%
